# Literature values, collected in patent US7578964B2, “Powder injection molding composition and method of use” (priority 2001, dated 2009).
# Columns and labels:
# [1] = solute solubility in water at 298.15 K; NIST Chemistry WebBook
# [2] = for Octanol - Water Partition Coefficient log POW: Handbook of Environmental Data on Organic Compounds, 4th Edition
Structure (SMILES),Henry's Law Constant k^0H [1],Octanol - Water Partition Coefficient log POW [2],log POW value ([2]; stated in text as known to those skilled in the art)
CC(C)=O [Acetone],30 mol/Kg*bar,−0.24,
c1ccccc1 [Benzene],0.18 mol/Kg*bar,,
ClC(Cl)(Cl)Cl [Carbon Tetrachloride],0.03 mol/Kg*bar,2.64,
CCOCC [Diethyl Ether],0.78-1.2 mol/Kg*bar,0.77,
C1COCCO1 [Dioxane],,−0.42,
CCO [Ethanol],200 mol/Kg*bar,,
CCOC(C)=O [Ethyl Acetate],8.9 mol/Kg*bar,0.66,
CCCCCC [Hexane],0.001 mol/Kg*bar,4,
CC(C)O [Isopropanol],130 mol/Kg*bar,,
CCC(C)=O [MEK],,0.28,
CO [Methanol],,−0.82,
ClCCl [Methylene Chloride],0.41 mol/Kg*bar,,
C1CCOC1 [THF],,0.45,
Cc1ccccc1 [Toluene],0.15 mol/Kg*bar,,
ClC=C(Cl)Cl [Trichloroethylene],0.11 mol/Kg*bar,2.42,
"O=C1CCCCCN1 [caprolactam, ε-caprolactam]",,,about 0.12
